The text below walks through data of patent US20230357292A1, “MULTI-COORDINATE GOLD-PHOSPHINE COMPOUNDS AND METHOD OF USE” (University of Kentucky Research Foundation, priority 2020, published 2023).

Test [1] has as its system A2780 (ovarian). The note with it: A2780 (ovarian), 4,000 cells/well, treated 72 h, mean ± SD (n = 3). Here is the method: (§1) All cell lines (OVCAR8, A2780, H460, and MDA-MB-231) were cultivated in RPMI or DMEM supplemented with 10% FBS, 1% penicillin/streptomycin, and 1% amphotericin. All cells were grown at 310K in a humidified atmosphere containing 5% CO2.
(§2) Various established human ovarian, lung, and breast cancer cell lines were seeded in 96-well plates (4000 cells/well) and were incubated with RPMI 1640 or DMEM (100 μL) supplemented with 10% FBS, 1% penicillin/streptomycin, and 1% amphotericin for 24 h and at 37° C. They were then treated with AuPhos compounds at increasing concentrations for 72 h from stock solutions following serial dilutions, in which AuPhos stock solutions were prepared in DMSO/media mixture (% v/v=20:80). Thereafter, cellular viability was assessed via the established crystal violet colorimetric assay. In brief, cells were fixed with 50 μL of a 1% glutaraldehyde solution and placed in an incubator (37° C., 5% CO2) for 1 hour. The plates were washed with water by running them under a gentle flow of tap water. The plates were air-dried, and crystal violet reagent was added to each well and allowed to incubate at room temperature for 20 min. The plates were washed with water and dried again. Methanol (200 μL/well) was added to each well, and the measurements of absorbance were subsequently performed using a Biotek Synergy H1 Plate Reader at 570 nm (peak absorbance).

For test [2], the system named is OVCAR8 (ovarian). The note with it: OVCAR8 (ovarian), 4,000 cells/well, treated 72 h, mean ± SD (n = 3). Here is the method:
as §1, §2

Test [3] deals with H460 (lung). The note with it: H460 (lung), 4,000 cells/well, treated 72 h, mean ± SD (n = 3). The procedure: as §1, §2
The test system of test [4] is MDA-MB-231 cells. The note with it: TMRE or JC-1 assay, short exposure periods.
Experimental: MDA-MB-231 cells were plated at a density of 5×10^5 cells/plate in a 6 well plate and allowed to adhere overnight at 37° C. […] The cells were incubated (37° C., 5% CO2) for 1 h at this concentration. Carbonyl cyanide 3-chlorophenylhydrazone (CCCP) was prepared as a stock in DMSO and added at a final concentration of 100 μM, and the cells were treated for 1 h. It was used as a positive control. After the indicated treatment time, a working solution of the JC-1 dye (Cayman Chemicals, Cat. #15003) was prepared by adding 100 μL of dye into 900 μL of DMEM. Note: the working solution of JC-1 should always be prepared fresh and not stored for long-term use. Then, 100 μL/mL of working solution of the JC-1 dye was added to the cells and incubated at 37° C. for 20 minutes. The cells were harvested and resuspended in 2 mL PBS. The cells were analyzed on a flow cytometer with 488 nm excitation and appropriate emission filters. Gated cells, excluded debris and the CCCP-treated sample was used to performed standard compensation.

The IC50 is the midpoint of a concentration-inhibition curve.

Turning to `[Cl-].[Cl][Au-]1([c]2ccccc2-c2ccccn2)[P+](c2ccccc2)(c2ccccc2)c2ccccc2[P+]1(c1ccccc1)c1ccccc1` [AuPhos-89, (2-phenylpyridine)[1,2-Bis(diphenylphosphino)benzene]gold(III) Dichloride], the IC50 in test [1] was found to be 0.34 ± 0.07 µM; in test [2] it was 1.16 ± 0.04 µM; in test [3] it was 0.72 ± 0.16 µM. For the same molecule, the “mitochondrial membrane potential (MMP)” value in test [4] was “depolarization of the MMP”.
